In US20010034454A1, “Description anti-mitotic agents which inhibit tubulin polymerization” (BYLOR UNIVERSITY AND ARIZONA DESEASE CONTROL RESEARCH …, priority 1998, published 2001):
pIC50: −log10 of the molar value. In brackets after ≈: the same amount, converted by molar mass. Read-outs that look alike come from different tables or passages of the source.

What was measured:
P388 leukemia cells = assay: Cytotoxic assay with P388 leukemia cells; type: cell-based, mouse
Source text: The tubulin polymerization compounds can also be tested for their ability to inhibit tumor cell growth.

NCI-H460 = assay: Growth inhibitory activity, human cancer cell line NCI-H460 (SRB); type: cell-based; conditions: Lung-NSC NCI-H460
Description: (§1) The assay used is described in Monks et al. Briefly, the cell suspensions, diluted according to tho particular cell type and the expected target cell density (5,000-40,000 cells per well based on cell growth characteristics), were added by pipet (100 μl) to 96-well microtiter plates. Inoculates were allowed a preincubation time of 24-28 hours at 37° C. for stabilization. Incubation with the inhibitor compounds lasted for 48 hours in 5% CO2 atmosphere and 100% humidity. Determination of cell growth was done by in situ fixation of cells, followed by staining with a protein-binding dye, sulforhodamine B (SRB), which binds to the basic amino acids of cellular macromolecules. The solubilized stain was measured spectrophotometrically.

FADU = assay: Human cancer cell line studies, FADU; type: cell-based; conditions: Pharynx-sqam FADU
Description: as §1

DU-145 = assay: Human cancer cell line studies, DU-145; type: cell-based; conditions: Prostate DU-145
Description: as §1

BXPC-3 = assay: Human cancer cell line studies, BXPC-3; type: cell-based; conditions: Pancreas adn BXPC-3
Description: as §1

U251 = assay: Human cancer cell line studies, U251; type: cell-based; conditions: CNS U251
Description: as §1, with “3-(3′,4′,5′-Trimethoxybenzoyl)-2-(4′-methoxyphenyl)-6-methoxybenzo[b]-thiophene was evaluated in terms of growth inhibitory activity against several human cancer cell lines, including ovarian CNS, renal, lung, colon and melanoma lines. The assay” for “The assay”

RPMI-7951 = assay: Human cancer cell line studies, RPMI-7951; type: cell-based; conditions: Melanoma RPMI-7951
Description: as §1, with “3-(3′,4′,5′-Trimethoxybenzoyl)-2-(4′-methoxyphenyl)-6-methoxybenzo[b]-thiophene was evaluated in terms of growth inhibitory activity against several human cancer cell lines, including ovarian CNS, renal, lung, colon and melanoma lines. The assay” for “The assay”

SK-N-SH = assay: Human cancer cell line studies, SK-N-SH; type: cell-based; conditions: Neuroblast SK-N-SH
Description: as §1

tubulin = test system: T1, tubulin; assay: Tubulin polymerization assay; type: biochemical, bovine; conditions: purified tubulin […], GTP-induced, 350 nm; final steady-state number for compounds other than 1A and 10A; read-out: IC50 for inhibition of tubulin polymerization
T1 construct: Purified tubulin is obtained from bovine brain cells as described in Hamel and Lin
Description: The ability of the various above described compounds to inhibit tubulin polymerization can be determined by in vitro assay. A suitable assay system is that described by Bai et al. A method for purifying tubulin from bovine brain cells is described by Hamel and Lin.
IC50 values for tubulin polymerization were determined according to the procedure described in Bai et al. Purified tubulin is obtained from bovine brain cells as described in Hamel and Lin. Various amounts of inhibitor were preincubated for 15 minutes at 37° C. with purified tubulin. After the incubation period, the reaction was cooled and GTP was added to induce tubulin polymerization. Polymerization was then monitored in a Gilford spectrophotometer at 350 nm. The final reaction mixtures (0.25 ml) contained 1.5 mg/ml tubulin, 0.6 mg/ml microtubule-associated proteins (MAPs), 0.5 mM GTP, 0.5 mM MgCl2, 4% DMSO and 0.1 M 4-morpholineethanesulfonate buffer (MES, pH 6.4). […]

SW1736 = assay: Human cancer cell line studies, SW1736; type: cell-based; conditions: Thyroid ca SW1736
Description: as §1

[1] = P388 mouse leukemia, dosage required to inhibit 50% of cell growth
[2] = P388 mouse leukemia, dosage required to inhibit 50% of cell growth, read-out: ED50 (the source's name)
[3] = Homo sapiens, U-251, read-out: GI50
[4] = Mus musculus, P388, read-out: ED50
[5] = Homo sapiens, SW-1736, read-out: GI50

SMILES | IC50 (P388 leukemia cells; [2]) | GI50 (NCI-H460; Homo sapiens, read-out: GI50) | GI50 (FADU; Homo sapiens, read-out: GI50) | GI50 (DU-145; Homo sapiens, read-out: GI50) | GI50 (BXPC-3; Homo sapiens, read-out: GI50) | GI50 (U251; [3]) | GI50 (RPMI-7951; Homo sapiens, read-out: GI50) | GI50 (SK-N-SH; Homo sapiens, read-out: GI50) | pIC50 (tubulin) | GI50 (SW1736; [5]) | further results
COc1ccc(-c2sc3cc(OC)ccc3c2C(=O)CCc2cc(OC)c(OC)c(OC)c2)cc1 [Compound 8A, 3-[3′-(3′,4′,5′-trimethoxyphenyl)propionyl]-2-(4′-methoxyphenyl)-6-methoxybenzo[b]thiophene] |  |  |  |  |  |  |  |  |  |  | ED50 (P388 leukemia cells; [1]): >10 µg/mL; GI50 (NCI-H460): 3.8 µg/mL (≈ 7.71 µM); GI50 (FADU): 9.1 µg/mL (≈ 18.5 µM); GI50 (DU-145): >10 µg/mL; GI50 (BXPC-3): >10 µg/mL; GI50 (U251): 4.5 µg/mL (≈ 9.14 µM); GI50 (RPMI-7951): >10 µg/mL
CCOc1ccc(-c2sc3cc(OCC)ccc3c2C(=O)c2cc(OCC)c(OCC)c(OCC)c2)cc1 [Compound 9A, 3-(3′,4′,5′-triethoxybenzoyl)-2-(4′-ethoxyphenyl)-6-ethoxybenzo[b]thiophene] | > 10 µg/mL | > 10 µg/mL | > 10 µg/mL | > 10 µg/mL | > 10 µg/mL | > 10 µg/mL | > 10 µg/mL |  |  |  | 
COc1ccc(-c2sc3cc(OC)ccc3c2Oc2cc(OC)c(OC)c(OC)c2)cc1 [Compound 23B, 3-(3′,4′,5′-trimethoxyphenoxy)-2-(4′-methoxyphenyl)-6-methoxybenzo[b]thiophene] |  | 0.31 µg/mL (≈ 0.685 µM) | 0.098 µg/mL (≈ 0.217 µM) | 0.42 µg/mL (≈ 0.928 µM) | 0.23 µg/mL (≈ 0.508 µM) |  |  | 0.063 µg/mL (≈ 0.139 µM) | 5.85 | 0.73 µg/mL (≈ 1.61 µM) | IC50 (P388 leukemia cells; [4]): 3.09 µg/mL (≈ 6.83 µM)
COc1ccc(-c2sc3cc(OC)ccc3c2C(=O)Cc2ccccc2)cc1 [Compound 20A, 3-(phenylacetyl)-2-(4′-methoxyphenyl)-6-methoxybenzo[b]thiophene] | > 10 µg/mL | > 10 µg/mL | 9.2 µg/mL (≈ 23.7 µM) | > 10 µg/mL | > 10 µg/mL | > 10 µg/mL | > 10 µg/mL |  |  |  | 
CCOc1ccc(C(=O)c2c(-c3ccc(OC)cc3)sc3cc(OC)ccc23)cc1 [Compound 6A, 3-(4′-ethoxybenzoyl)-2-(4′-methoxyphenyl)-6-methoxybenzo[b]thiophene] | > 100 µg/mL | 2.4 µg/mL (≈ 5.73 µM) | 0.48 µg/mL (≈ 1.15 µM) | 3.9 µg/mL (≈ 9.32 µM) | 0.65 µg/mL (≈ 1.55 µM) | 0.43 µg/mL (≈ 1.03 µM) | 3.2 µg/mL (≈ 7.65 µM) |  |  |  | 
COc1ccc(-c2sc3cc(OC)ccc3c2C(=O)Cc2cc(OC)c(OC)c(OC)c2)cc1 [Compound 21A] |  |  |  |  |  |  |  |  |  |  | ED50 (P388 leukemia cells; [1]): >10 µg/mL; GI50 (NCI-H460): >10 µg/mL; GI50 (FADU): 7.9 µg/mL (≈ 16.5 µM); GI50 (DU-145): >10 µg/mL; GI50 (BXPC-3): 9.8 µg/mL (≈ 20.5 µM); GI50 (U251): >10 µg/mL; GI50 (RPMI-7951): >10 µg/mL
CCOc1cc(C(=O)c2c(-c3ccc(OC)cc3)sc3cc(OC)ccc23)cc(OCC)c1OCC [Compound 7A, 3-(3′,4′,5′-triethoxybenzoyl)-2-(4′-methoxyphenyl)-6-methoxybenzo[b]thiophene] | > 100 µg/mL | > 10 µg/mL | > 10 µg/mL | > 10 µg/mL | > 10 µg/mL | > 10 µg/mL | > 10 µg/mL |  |  |  | 
COc1ccc(/C=C\c2cc(OC)c(OC)c(OC)c2)cc1[N+](=O)[O-] [Compound 31E, (Z)-1-(4″-methoxy-3″-nitrophenyl)-2-(3′,4′,5′-trimethoxyphenyl)ethene] |  |  |  |  |  |  |  |  |  |  | ED50 (P388 leukemia cells; [1]): 4.0 µg/mL (≈ 11.6 µM); GI50 (NCI-H460): 0.043 µg/mL (≈ 0.125 µM); GI50 (SK-N-SH): >10 µg/mL; GI50 (FADU): 2.6 µg/mL (≈ 7.53 µM); GI50 (DU-145): 0.046 µg/mL (≈ 0.133 µM); GI50 (BXPC-3): 0.037 µg/mL (≈ 0.107 µM); GI50 (SW1736): 0.056 µg/mL (≈ 0.162 µM)
COc1ccc(/C=C\c2cc(OC)c(OC)c(OC)c2)cc1N=[N+]=[N-] [Compound 34E, (Z)-1-(3′azido-4′-methoxyphenyl)-2-(3″,4″,5″-trimethoxyphenyl)ethene] |  | 0.0056 µg/mL (≈ 0.0164 µM) | 0.0076 µg/mL (≈ 0.0223 µM) | 0.0091 µg/mL (≈ 0.0267 µM) | 0.005 µg/mL (≈ 0.0146 µM) |  |  | 0.0033 µg/mL (≈ 0.00967 µM) | 5.89 | 1.2 µg/mL (≈ 3.52 µM) | IC50 (P388 leukemia cells; [4]): 0.0384 µg/mL (≈ 0.112 µM)
COc1ccc(/C=C\c2cc(OC)c(OC)c(OC)c2)cc1N [Compound 33E, (Z)-1-(3′-amino-4′-methoxyphenyl)-2-(3″,4″,5″-trimethoxyphenyl)ethene] |  | 0.00068 µg/mL (≈ 0.00216 µM) | < 0.001 µg/mL | 0.00096 µg/mL (≈ 0.00304 µM) | 0.0013 µg/mL (≈ 0.00412 µM) |  |  | < 0.001 µg/mL | […] | < 0.001 µg/mL | 
COc1ccc(-c2sc3cc(OC)ccc3c2C(=O)c2ccc(OC)c(OC)c2)cc1 [Compound 4A, 3-(3′,4′-dimethoxybenzoyl)-2-(4′-methoxyphenyl)-6-methoxybenzo[b]thiophene] | > 10 µg/mL | 4.6 µg/mL (≈ 10.6 µM) | 4.7 µg/mL (≈ 10.8 µM) | > 10 µg/mL | 5.2 µg/mL (≈ 12 µM) |  |  | 3.2 µg/mL (≈ 7.36 µM) | < 4.40 | > 10 µg/mL | 
COc1ccc(-c2sc3cc(OC)ccc3c2C(=O)c2cc(OC)c(OC)c(OC)c2)cc1 [Compound 1A, 3-(3′,4′,5′-trimethoxybenzoyl)-2-(4′-methoxyphenyl)-6-methoxybenzo[b]thiophene] |  |  |  |  |  |  |  |  |  |  | melting point: 131 to 133 °C
COc1ccc(C(=O)c2c(-c3ccc(OC)cc3)sc3cc(OC)ccc23)cc1 [Compound 5A, 3-(4′-methoxybenzoyl)-2-(4′-methoxyphenyl)-6-methoxybenzo[b]thiophene] | > 100 µg/mL | > 10 µg/mL | > 10 µg/mL | > 10 µg/mL | 8.9 µg/mL (≈ 22 µM) | > 10 µg/mL | > 10 µg/mL |  |  |  | 
COc1ccc(-c2sc3cc(OC)ccc3c2C(=O)c2c(F)c(F)c(F)c(F)c2F)cc1 [Compound 15A, 3-(2′,3′,4′,5′,6′-pentafluorobenzoyl)-2-(4′-methoxyphenyl)-6-methoxybenzo[b]thiophene] |  | 7.9 µg/mL (≈ 17 µM) | 1.3 µg/mL (≈ 2.8 µM) | 5 µg/mL (≈ 10.8 µM) | 5.9 µg/mL (≈ 12.7 µM) |  |  | 1.4 µg/mL (≈ 3.01 µM) | < 4.40 | 4 µg/mL (≈ 8.61 µM) | 
